# Experimental data: patent US20080280997A1, “Novel Pharmaceutical or Cosmetic Carriers Containing Cyclic Acetals” (GATTEFOSSE SAS, priority 2004, published 2008)
# Entries after “also recorded” stand apart in the source; their conditions may differ.
# What was measured:
# Type in all cases: physicochemical
# Miscibility in water = experiment: Miscibility in water
# From the text: The BDM molecule is produced following the same process as that used in example 1 (without solvents), using pentanal and glycerol. The substance obtained is confirmed by GC-MS analysis. Its water solubility is approximately 2 g in 100 g water. Beyond that, turbidity appears.
# [1] = Solubility of EDM in oils, alcohols and water
# From the text: 3/ Solubility of EDM in Oils and Alcohols
# The solubility of EDM is studied in various oils, alcohols and water. The solubility results are expressed in g of EDM incorporable into 100 g of oil or ester before turbidity appears.
# [2] = Solubilisation of UV filters with ETP, EDM and PDM; conditions: for Solubility of 1,2-butyl methoxydibenzoylmethane in the solvent: UV filter 1,2-butyl methoxydibenzoylmethane; for Solubility of Benzophenone-3 in the solvent: UV filter Benzophenone-3
# Experimental: 4/ Solubilisation of Filters with ETP, EDM and PDM
# The solubility of two organic UV filters (benzophenone-3 et 1,2-butyl methoxydibenzoylmethane) are assessed in ETP, EDM and PDM.
# • homogenise the mixture for 30 seconds in a vortex mixer, • apply ultrasounds for 15 minutes (repeat if the filter is not miscible up to a maximum of 60 minutes), • for the following percentages, an identical quantity of UV filter is always added to a set initial quantity of solvent.
# Solubility is expressed in g of filter soluble in 100 g of final solution.
# Solubility in oils = conditions: before turbidity appears
# [3] = Compatibility of EDM with gelling agents
# From the text: We tested the influence of 5% EDM in gels produced using gelling agents with different chemical natures.
# [4] = Stability of the pH of an EDM solution; conditions: 5% EDM
# Experimental: The stability of solutions at different pHs after adding 5% EDM was studied.
# The different solutions were prepared: • using citric acid and Na2HPO4 for pHs between 3 and 7, • using boric acid, KCl and NaOH for pHs between 8 and 10.
# [5] = Solubilisation of non-water soluble active ingredients in water assisted by solvent
# From the text: Five hydrophobic active ingredients were solubilised in water using EDM.
# The following table indicates what mass of solvent (g) must be added to solubilise 1 g of a mixture comprising 98% water and 2% active ingredient.
# The smaller the quantity of solvent to be added, the greater its solubilising power.
# [6] = Solubilisation of active ingredients in EDM; conditions: solubility in EDM
# Experimental: 5/ Solubilisation of Active Ingredients in EDM
# The solubility of the various active ingredients in EDM was studied. It is expressed in g of active ingredient soluble in 100 ml of EDM.
# [7] = buffer solution initial pH 4.25
# [8] = buffer solution initial pH 6.15
# [9] = buffer solution initial pH 7.15
# [10] = buffer solution initial pH 10.0
# [11] = active ingredient Bisabolol nat.
# [12] = active ingredient Eusolex 4360 (Benzophenone 3)
# [13] = active ingredient HE eucalyptus (Eucalyptus globulus leaf oil)
# [14] = active ingredient Vitamin E (Tocopherol)
compound,measurement,setting,value
"2-butyl-1,3-dioxolane-4-hydroxymethyl and 2-butyl-1,3-dioxan-5-ol [BDM]",water solubility,"Miscibility in water; beyond that, turbidity appears",approximately 2 g in 100 g water
same,Miscibility in water,Miscibility in water,not miscible in water; also recorded: Non-miscible
"2-ethyl-4-hydroxymethyl-1,3-dioxolane and 2-ethyl-1,3-dioxan-5-ol [EDM]",EDM mass,[1]; in Apricot kernel oil,>100 g of EDM incorporable into 100 g of oil or ester
same,EDM mass,[1]; in Arlamol E (PPG-15 Stearyl Ether),>100 g of EDM incorporable into 100 g of oil or ester
same,EDM mass,[1]; in Butylene Glycol,>100 g of EDM incorporable into 100 g of oil or ester
same,EDM mass,[1]; in Castor oil,>100 g of EDM incorporable into 100 g of oil or ester
same,EDM mass,[1]; in DPPG (Propylene glycol dipelargonate),>100 g of EDM incorporable into 100 g of oil or ester
same,EDM mass,[1]; in Glycerine,>100 g of EDM incorporable into 100 g of oil or ester
same,EDM mass,[1]; in IPM (Isopropyl myristate),>100 g of EDM incorporable into 100 g of oil or ester
same,EDM mass,[1]; in Labrafac CC (Caprylic/capric triglyceride),>100 g of EDM incorporable into 100 g of oil or ester
same,EDM mass,[1]; in PEG-300,>100 g of EDM incorporable into 100 g of oil or ester
same,EDM mass,[1]; in Propylene Glycol,>100 g of EDM incorporable into 100 g of oil or ester
same,EDM mass,[1]; in Tegosoft TN (C12/C15 alkyl benzoate),>100 g of EDM incorporable into 100 g of oil or ester
same,EDM mass,[1]; in Water,>100 g of EDM incorporable into 100 g of oil or ester
same,"Solubility of 1,2-butyl methoxydibenzoylmethane in the solvent",[2],>32 g of filter soluble in 100 g of final solution
same,Solubility of Benzophenone-3 in the solvent,[2],>40 g of filter soluble in 100 g of final solution
same,Solubility in Medium-chain triglyceride (MCT),Solubility in oils,>100 g of solvent solubilised in 100 g of oil or ester
same,Solubility in Octyldodecanol myristate (ODM),Solubility in oils,50 g of solvent solubilised in 100 g of oil or ester
same,Solubility in Sunflower oil,Solubility in oils,>100 g of solvent solubilised in 100 g of oil or ester
same,Viscosity variation,"[3]; 5% EDM in gels of Blanose 7HF, Jaguar HP 105, Keltrol T, Natrosol 250HX (cell wraps: Small variation)",Small
same,Viscosity drop,"[3]; 5% EDM in gels of Novemer EC-1, Sepigel 305",Drop >30%
same,Breaking of gels on adding EDM,"[3]; 5% EDM, gelling agents of the different families tested",none of the gels formulated is broken
same,Miscibility in water,Miscibility in water,Miscible
same,pH after adding EDM,[4]; buffer solution initial pH 3.1,3.15
same,pH at 1 month,[4]; buffer solution initial pH 3.1,3
same,pH after adding EDM,[4]; [7],4.3
same,pH at 1 month,[4]; [7],4.2
same,pH after adding EDM,[4]; buffer solution initial pH 5.1,5.15
same,pH at 1 month,[4]; buffer solution initial pH 5.1,5.1
same,pH after adding EDM,[4]; [8],6.2
same,pH at 1 month,[4]; [8],6.1
same,pH after adding EDM,[4]; [9],7.2
same,pH at 1 month,[4]; [9],7.1
same,pH after adding EDM,[4]; buffer solution initial pH 8.0,8.0
same,pH at 1 month,[4]; buffer solution initial pH 8.0,8.0
same,pH after adding EDM,[4]; buffer solution initial pH 9.0,9.1
same,pH at 1 month,[4]; buffer solution initial pH 9.0,9.0
same,pH after adding EDM,[4]; [10],10.0
same,pH at 1 month,[4]; [10],10.0
same,pH variations observed,"[4]; buffer solutions pH 3 to 10, not significant",approximately 0.1 pH units
same,Mass of solvent to solubilise 1 g of mixture 98% water and 2% active ingredient,[5]; [11],0.9 g
same,Mass of solvent to solubilise 1 g of mixture 98% water and 2% active ingredient,[5]; [12],1.7 g
same,Mass of solvent to solubilise 1 g of mixture 98% water and 2% active ingredient,[5]; [13],1 g
same,Mass of solvent to solubilise 1 g of mixture 98% water and 2% active ingredient,[5]; active ingredient Menthol,0.7 g
same,Mass of solvent to solubilise 1 g of mixture 98% water and 2% active ingredient,[5]; [14],2.0 g
"2-propyl-4-hydroxymethyl-1,3-dioxolane with 2-propyl-1,3-dioxan-5-ol [PDM]","Solubility of 1,2-butyl methoxydibenzoylmethane in the solvent",[2],22 g of filter soluble in 100 g of final solution
same,Solubility of Benzophenone-3 in the solvent,[2],18 g of filter soluble in 100 g of final solution
same,Solubility in Medium-chain triglyceride (MCT),Solubility in oils,>100 g of solvent solubilised in 100 g of oil or ester
same,Solubility in Octyldodecanol myristate (ODM),Solubility in oils,100 g of solvent solubilised in 100 g of oil or ester
same,Solubility in Sunflower oil,Solubility in oils,>100 g of solvent solubilised in 100 g of oil or ester
same,Miscibility in water,Miscibility in water,Miscible
"CO[C@H]1CO[C@H]2[C@@H]1OC[C@H]2OC [Arlasolve DMI, Dimethyl Isosorbide, reference compound]",Mass of solvent to solubilise 1 g of mixture 98% water and 2% active ingredient,[5]; [11],2.3 g
same,Mass of solvent to solubilise 1 g of mixture 98% water and 2% active ingredient,[5]; [12],2.3 g
same,Mass of solvent to solubilise 1 g of mixture 98% water and 2% active ingredient,[5]; [13],2.2 g
same,Mass of solvent to solubilise 1 g of mixture 98% water and 2% active ingredient,[5]; active ingredient Menthol,1.7 g
same,Mass of solvent to solubilise 1 g of mixture 98% water and 2% active ingredient,[5]; [14],5.0 g
"CC(C)=CCC[C@](C)(O)C1CC=C(C)CC1 (some centres unmarked) [Bisabolol nat., Bisabolol]",Mass of active ingredient (g),[6],>100 g of active ingredient soluble in 100 ml of EDM
"CCC1(CO)COC(C)OC1 (centres unmarked) [ETP, 2-methyl-5-ethyl-5-hydroxymethyl-1,3-dioxane]","Solubility of 1,2-butyl methoxydibenzoylmethane in the solvent",[2],5 g of filter soluble in 100 g of final solution
same,Solubility of Benzophenone-3 in the solvent,[2],35 g of filter soluble in 100 g of final solution
same,Solubility in Medium-chain triglyceride (MCT),Solubility in oils,>100 g of solvent solubilised in 100 g of oil or ester
same,Solubility in Octyldodecanol myristate (ODM),Solubility in oils,100 g of solvent solubilised in 100 g of oil or ester
same,Solubility in Sunflower oil,Solubility in oils,>100 g of solvent solubilised in 100 g of oil or ester
same,Miscibility in water,Miscibility in water,Miscible
CC1CCC(C(C)C)C(O)C1 (centres unmarked) [Menthol],Mass of active ingredient (g),[6],>100 g of active ingredient soluble in 100 ml of EDM
"CCCCC(CC)COC(=O)C=Cc1ccc(OC)cc1 (centres unmarked) [Parsol MCX, Ethylhexyl methoxycinnamate]",Mass of active ingredient (g),[6],>100 g of active ingredient soluble in 100 ml of EDM
Glycerol formal [reference compound],Solubility in Medium-chain triglyceride (MCT),Solubility in oils,<12 g of solvent solubilised in 100 g of oil or ester
same,Solubility in Octyldodecanol myristate (ODM),Solubility in oils,<12 g of solvent solubilised in 100 g of oil or ester
same,Solubility in Sunflower oil,Solubility in oils,12 g of solvent solubilised in 100 g of oil or ester
same,Miscibility in water,Miscibility in water,Miscible
Retinal [Vitamin A],Mass of active ingredient (g),[6],>100 g of active ingredient soluble in 100 ml of EDM
Tocopherol [Vitamin E],Mass of active ingredient (g),[6],>100 g of active ingredient soluble in 100 ml of EDM
